Reference: patent publication US8329645B2, “Polymyxin derivatives and uses thereof” (priority 2008, dated 2012)
Where a SMILES comes first, the peptide text is derived from it. Bridges are numbered along the chain shown (N, C = ends). [ ]: non-standard residue; d: D form. The star is where a group is joined. Decanoyl = CCCCCCCCCC(=O)*; Octanoyl = CCCCCCCC(=O)*; Dab = NCC[C@H](N)C(=O)O; Abu = CC[C@H](N)C(=O)O

What was measured:
K. pneumoniae ATCC13883 = test: Growth inhibition around wells on LB agar plates; type: cell-based, Klebsiella pneumoniae
Method: (§1) From an overnight-grown culture of IH3080 on LB agar, a suspension of approx. 10^8 cells/ml was prepared in 0.9% NaCl. Aliquots of this suspension were then pipetted on the agar plates and the plates were gently shaken to spread the suspension evenly on the entire surface of the plate. Thereafter, the unabsorbed part of the suspension was removed by using a Pasteur pipette. After the surface had dried, small wells (diameter, 2 mm) were drilled on the plates (five wells per plate) by using a sterile sharp-edged narrow metal tube, single-use pipette tip, and vacuum suction. An alternative method used a swab to spread the inoculum. Samples (4 μl and 10 μl) of the peptide solution in 0.9% NaCl (at concentrations of 1 μg/ml and 0.1 μg/ml) were then pipetted to the wells and the sample fluids were allowed to absorb. Controls included 0.9% NaCl solution without the compound to be tested. The plates were then incubated for 18 h at 37° C. whereafter the diameters of growth inhibition zones around each well were measured; the diameter of the well itself was not reduced. Finally, the diameters were converted to surface areas of growth inhibition (in square mm).
(§2) The susceptibility of eleven Gram-negative bacterial strains (nine different species) to NAB734 and polymyxin B was compared by using the susceptibility determination method described in Example 2. The strains included those belonging to the species of Serratia marcescens and Proteus mirabilis, both species generally known to be resistant to polymyxin. Furthermore, the susceptibility determination was also performed by using the Gram-positive bacterium, Staphylococcus aureus, also generally known to be polymyxin-resistant. Ten of the strains originated from ATCC (American Type Culture Collection, Manassas, Va., U.S.A.), and one from CCUG (Culture Collection of University of Gothenburg, Sweden). The source of E. coli IH3080 has been described in Example 2. Polymyxin B sulfate was from Sigma-Aldrich (St. Louis, Mo., USA).

K. pneumoniae CCUG45421 = test: Growth inhibition around wells on LB agar plates; type: cell-based, Klebsiella pneumoniae
Method: as §1, §2

C. freundii ATCC8090 = test: Growth inhibition around wells on LB agar plates; type: cell-based, Citrobacter freundii
Method: as §1, §2

S. marcescens ATCC8100 = test: Growth inhibition around wells on LB agar plates; type: cell-based, Serratia marcescens
Method: as §1, §2

P. mirabilis ATCC29906 = test: Growth inhibition around wells on LB agar plates; type: cell-based, Proteus mirabilis
Method: as §1, §2

S. aureus ATCC 25923 = test: Growth inhibition around wells on LB agar plates; type: cell-based, Staphylococcus aureus
Method: as §1, §2

E. coli IH3080 [1] = test: E-test MIC with or without NAB7061 (4 μg/ml), Mueller-Hinton agar; type: cell-based, Escherichia coli
How it was run: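 MICs were read from antibiotic gradient strips applied according to the manufacturer's instructions.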

Pseudomonas aeruginosa = type: cell-based
Method: Polymyxin B sulfate (Sigma-Aldrich, St. Louis, Mo., USA) was used as a control. […] Fourteen (14) strains (the F-strains) were purchased from Mobidiag Ltd., Helsinki, Finland. Besides bacteria, the MIC was also determined for the yeast Candida albicans (ATCC 28366 from ATCC). The inocula were prepared by adjusting the bacterial suspensions to a density equivalent to OD546 nm˜0.3 (˜10^8 CFU/ml˜0.5 McFarland) the yeast suspension to a density equivalent to OD546 nm˜0.75 (˜2×10^7 CFU/ml)._The suspensions were diluted to 10^7 CFU/ml. The plates were inoculated by using a Denley Multipoint Inoculator, 1 μl per spot corresponding to approx. 10^4 CFU/spot. Plates were incubated for 16-20 hours at 35° C. […] Both agents had good activity also against other polymyxin-susceptible strains of Enterobacteriaceae. […] S. aureus and C. albicans were resistant to the NAB peptides.

in vivo = details: male, Sprague-Dawley, rat, iv, 1 mg/kg
Method: Each rat (n=5, Sprague-Dawley, male) was anaesthetized using isoflurane, and a polyethylene cannula was inserted into the jugular vein. Each rat was placed into a metabolic cage and allowed to recover from the procedure overnight. […] When collecting samples, the first 100 μl of blood was withdrawn and kept in the syringe. After collecting the actual sample with another syringe, the content of the first syringe was returned to the rat together with 400 μl of heparinized saline. Blood samples were centrifuged to obtain plasma. […] Plasma and urine samples were stored at −80° C.
To a 100-μl sample, 100 μl of acetonitrile was added, the mixture was vortex-mixed for 1 min, and centrifuged at 10,000 g for 10 min. The supernatant was transferred to an SPE C18 cartridge (Sep-Pak, Waters, Mass. USA) for derivatization with 9-fluorenylmethyl chloroformate. […] The chromatography employed the HPLC C18 column (50×4.6 mm), the mobile phase of acetonitrile/tetrahydrofuran/water (60:15:30, v/v), the flow rate of 1.0 ml/min, and the detection at an excitation wavelength of 260 nm and an emission wavelength of 315 nm.

E. coli IH3080 [2] = test: Bactericidal activity in PBS (% survival); type: cell-based, Escherichia coli; details: solution age fresh
Method: For the measurement of the antibacterial activity of aqueous solutions of NAB 739 methanesulfonate sodium, three different solutions were made: 1) A solution (1 mg/ml) made in 0.9% NaCl immediately prior to the experiment, 2) a solution (1 mg/ml) made in 0.9% NaCl 24 h prior to the experiment and kept at 37° C., 3) a solution (1 mg/ml) made in 0.9% NaCl 48 h prior to the experiment and kept at 37° C. A freshly made solution of NAB 739 acetate served as the control compound.
The test bacterium was E. coli IH3080. It was grown in LB broth (LB broth Lennox, Difco, BD, Sparks, Md., U.S.A.) at 37 Celsius in a rotary shaker into early logarithmic growth phase, washed with PBS, and resuspended in PBS to approx. 10e9 cells/ml. PBS was inoculated with approx. 500 CFU (colony forming units) of bacteria per ml and pipetted in 0.2 ml aliquots into wells of a microtiter plate. The plates already contained increasing concentrations of NAB 739 methanesulfonate or the control compound in 0.020 ml of 0.9% NaCl. […] The plate was incubated overnight at 37° C. and the developed colonies were counted.

With Polymyxin B [reference compound] as the compound, how does the “growth inhibition around a well” value (K. pneumoniae ATCC13883; 4 μg) read?
Its value is 79 square millimeters.

What about the “growth inhibition around a well” value (K. pneumoniae ATCC13883; 10 μg) of the same compound?
Its value is 113 square millimeters.

And the “growth inhibition around a well” value (K. pneumoniae CCUG45421; 4 μg)?
Its value is 95 square millimeters.

What about the “growth inhibition around a well” value (K. pneumoniae CCUG45421; 10 μg) of the same compound?
The value was 133 square millimeters.

And the “growth inhibition around a well” value (C. freundii ATCC8090; 4 μg)?
The value was 95 square millimeters.

What about the “growth inhibition around a well” value (C. freundii ATCC8090; 10 μg) of the same compound?
Its value is 154 square millimeters.

What about the “growth inhibition around a well” value (S. marcescens ATCC8100; 4 μg) of the same compound?
Its value is 0 square millimeters.

And the “growth inhibition around a well” value (S. marcescens ATCC8100; 10 μg)?
Its value is 0 square millimeters.

And the “growth inhibition around a well” value (P. mirabilis ATCC29906; 4 μg)?
The value was 0 square millimeters.

What about the “growth inhibition around a well” value (P. mirabilis ATCC29906; 10 μg) of the same compound?
Its value is 0 square millimeters.

What about the “growth inhibition around a well” value (S. aureus ATCC 25923; 4 μg) of the same compound?
Its value is 0 square millimeters.

What about the “growth inhibition around a well” value (S. aureus ATCC 25923; 10 μg) of the same compound?
The value was 0 square millimeters.

And the “Sensitization factor to antibiotic (MIC without / with 4 μg/ml of NAB 7061)” value (E. coli IH3080 [1])?
Its value is 2.

Which “MIC, range for Pseudomonas aeruginosa” value (Pseudomonas aeruginosa) does the source give for CCCCCCCCCC(=O)N[C@H](C(=O)N[C@H](CO)C(=O)N[C@H]1CCNC(=O)[C@H]([C@@H](C)O)NC(=O)[C@H](CCN)NC(=O)[C@H](CCN)NC(=O)[C@H](CC(C)C)NC(=O)[C@@H](Cc2ccccc2)NC(=O)[C@H](CCN)NC1=O)[C@@H](C)O [NAB 740, DA-Thr-DSer-cy[Dab-Dab-DPhe-Leu-Dab-Dab-Thr-]] (Decanoyl-T[dS][Dab][Dab][dF]L[Dab][Dab]T; lactam 3-C) here?
Its value is 4 to 8 µg/mL.

With CCCCCCCC(=O)N[C@H](C(=O)N[C@@H](CC)C(=O)N[C@H]1CCNC(=O)[C@H]([C@@H](C)O)NC(=O)[C@H](CCN)NC(=O)[C@H](CCN)NC(=O)[C@H](CC(C)C)NC(=O)[C@@H](Cc2ccccc2)NC(=O)[C@H](CCN)NC1=O)[C@@H](C)O [NAB 7061, OA-Thr-Abu-cy[Dab-Dab-DPhe-Leu-Dab-Dab-Thr-]] (Octanoyl-T[Abu][Dab][Dab][dF]L[Dab][Dab]T; lactam 3-C) as the compound, how does the CL renal (in vivo; plasma and urine) read?
The CL renal was 0.28 ± 0.16 mL/min/kg.

What about the Vd (in vivo; plasma) of the same compound?
The Vd was 0.339 ± 0.096 L/kg.

And the clearance (in vivo; plasma)?
The clearance was 3.84 ± 0.75 mL/min/kg.

What about the half-life (in vivo; plasma) of the same compound?
Its half-life is 1.1 ± 0.205 h.

And the dose excreted (in vivo; urine)?
Its dose excreted is 7.16 ± 3.7%.

For CCCCCCCC(=O)N[C@H](C(=O)N[C@H](CO)C(=O)N[C@H]1CCNC(=O)[C@H]([C@@H](C)O)NC(=O)[C@H](CCN)NC(=O)[C@H](CCN)NC(=O)[C@H](CC(C)C)NC(=O)[C@@H](Cc2ccccc2)NC(=O)[C@H](CCN)NC1=O)[C@@H](C)O [NAB 739, OA-Thr-DSer-cy[Dab-Dab-DPhe-Leu-Dab-Dab-Thr-]] (Octanoyl-T[dS][Dab][Dab][dF]L[Dab][Dab]T; lactam 3-C), which “% survival at 37 degrees centigrade” value (E. coli IH3080 [2]; 1 μg/ml) is on record?
The value was 21%.

And the “% survival at 37 degrees centigrade” value (E. coli IH3080 [2]; 2 μg/ml)?
Its value is 2%.

And the “% survival at 37 degrees centigrade” value (E. coli IH3080 [2]; 4 μg/ml)?
The value was 0%.
